Values of other authors as cited in patent publication US8202545B2, “Nutraceutical for the prevention and treatment of cancers and diseases affecting the liver” (Canthao Corporation, priority 2003, dated 2012).

What was measured:
[1] = test system: recurrent and second primary hepatomas; conditions: treated group vs placebo 49%, P=0.04
chronic hepatitis = chronic hepatitis patients
[2] = latest phase III clinical trial

## COc1cccc2c1C(=O)c1c(O)c3c(c(O)c1C2=O)C[C@@](O)(C(=O)CO)C[C@@H]3O[C@H]1C[C@H](N)[C@H](O)[C@H](C)O1 [Doxorubicin]
Liver cancer; [2]
  median survival of patients treated: 7 months
  response rate: 11%
Liver cancer; liver cancer patients
  patients in whom agent is effective: less than 20%
Liver cancer; liver cancer patients (Leung and Johnson 2001)
  median survival: less than 6 months

## CC(C)=CCC/C(C)=C/CC/C(C)=C/C=C/C(C)=C/C(=O)O [acyclic retinoid, polyprenoic acid]
[1]
  incidence of recurrent or new hepatoma: 27%

## O=C1O[C@H]([C@@H](O)CO)C(O)=C1O [ascorbic acid]
Human hepatoma cell; decreased from 302
  AFP level in cells: 90
Human hepatoma cell; human hepatoma cells
  cellular growth inhibition as compared to controls: approximately 60%

## interferon
Chronic hepatitis
  overall response rate (normalization of liver enzyme levels and reduction of viral load): roughly 50%
